{"source": "patent US11458163B2", "about": "“Platinum(IV) conjugates and methods of use” (priority 2019, dated 2022)", "key": {"[1]": {"conditions": "cited from earlier work"}, "[2]": {"test_system": "AT84 murine head and neck squamous cell carcinoma cell line", "test": "Anti-proliferation study, AT84 cells (Resazurin Blue)", "format": "cell-based, mouse", "conditions": "72 hours, n=7-8", "experimental": "AT84 cells were derived from a spontaneous squamous cell carcinoma in the oral mucosa of a C3H mouse (19,20) and were gifted by Aldo Venuti (Regina Elena National Cancer Institute, Rome, Italy). Cells tested negative for interspecies contamination (Idexx BioResearch, CellCheck STR profiling). Cells tested negative for rodent pathogens (Idexx BioResearch, IMPACT I PCR profile). Cells tested negative for Mycoplasm contamination (Lonza, Basel, Switzerland, MycoAlert test kit). Cells were cultured in RPMI-1640 media (Gibco, Thermo Fisher Scientific, Waltham, Mass.) supplemented with 10% FBS (Corning Corning, N.Y.), and 100 U/mL penicillin/100 μg/mL streptomycin (HyClone, Thermo Fisher Scientific, Waltham, Mass.) in a humidified incubator at 37° C. and 5% CO2.\nAT84 cells were maintained in RPMI-1640 media (Gibco) with 10% fetal bovine serum (Corning), and 100 U/mL penicillin/100 μg/mL streptomycin (HyClone) in a humidified incubator at 37° C. and 5% CO2. Cells were seeded into 96-well plates (3,000 cells/well in 90 ul media) and allowed to attach overnight. […] Fluorescence (λex 550 nm, λem 605 nm) was quantified with a SpectraMax Gemini XS plate-reader (Molecular Devices, Sunnyvale, Calif.). […] Data from at least five separate experiments was analyzed using non-linear regression (GraphPad Prism 5.0) to generate […]."}, "calreticulin (CRT)": {"test_system": "calreticulin (CRT)", "test": "Calreticulin translocation in AT84 cells transfected with mouse CRT-HaloTag-KDEL fusion protein", "format": "cell-based", "conditions": "500 μM, 12-15 hours (overnight)", "excerpt": "Plasmid: The full cDNA sequence of the insert was published by Golden et al. (21) and codes for a mouse calreticulin-HaloTag®-KDEL fusion protein. The cDNA sequence includes Mus musculus calreticulin (Accession BC003453, Version BC003453.1, CDS 37-1286), the HaloTag® vector (Accession HM157289, Version HM157289.1, CDS 197-1081), and a KDEL sequence. This cDNA sequence was inserted into a mammalian expression vector, pD643-Rc, by DNA2.0 (now ATUM, Newark, Calif.). The vector includes a CayenneRFP reporter protein (Ex:554 nm/Em:590 nm) used to visualize positively transfected cells.\nAT84 cells were plated in 6-well culture plates and allowed to grow to ˜90% confluence. Cells were transfected with a plasmid containing a mouse calreticulin-HaloTag®-KDEL fusion protein and a CayenneRFP reporter protein using lipofectamine (Invitrogen, Carlsbad, Calif.). Five microliters of lipofectamine was added to 150 μl Opti-MEM (Gibco, Thermo Fisher Scientific, Waltham, Mass.). Ten micrograms of plasmid DNA was added to 150 μl Opti-MEM. Both solutions were incubated at room temperature for 5 minutes. DNA solution was added to lipofectamine solution and incubated for 20 minutes at room temperature. During incubation, media on the cells were replaced with serum-free media (2 mL). 250 μl of DNA:lipofectamine solution was added dropwise to each well, which contained 2 mL of serum-free media. […]"}, "calf thymus DNAs": {"test_system": "calf thymus DNAs", "conditions": "cited from earlier work"}, "AT84 allografts": {"test_system": "AT84 allografts", "test": "Immunocompetent tumor model: orthotopic AT84 allografts in C3H mice", "format": "in vivo", "experimental": "Wildtype C3H mice (Charles River Strain 025, 6-8 weeks old, 20-25 g) were used for in vivo tumor studies. Both male and female mice were used in the studies. […] Mice were anesthetized using 5% isoflurane in O2 for 5 minutes. One million AT84 cells in 50 μl PBS were injected subcutaneous (s.c.) into the floor of the mouth via an extra-oral route of C3H mice to obtain orthotopic allograft tumors (19,20). […] Under isoflurane anesthesia, Pt(IV)-toco/HA-toco composition (3 mg/kg on Pt(IV)-toco basis) or vehicle (50 μl hyaluronan-tocopherol, 16.7 mg/mL) was injected intratumoral on days 4, 11, and 18 after the tumor cell injection. Tumor size was calculated: tumor volume (mm^3)=0.52×(width)^2×length, where length is the longer of two perpendicular dimensions."}, "MDA-1986 xenografts": {"test_system": "MDA-1986 xenografts", "test": "Immunodeficient tumor model: orthotopic MDA-1986 xenografts in nude mice", "format": "in vivo", "experimental": "Nude mice (Charles River Ath/nu, 6-8 weeks old, 20-25 g) were used for in vivo tumor studies. Both male and female mice were used in the studies. […] Mice were anesthetized using 5% isoflurane in O2 for 5 minutes. One million MDA-1986 cells in 50 μl PBS were injected subcutaneous into the left cheek of nude mice to obtain orthotopic xenograft tumors (13,15). Treatment began when tumors reached 75 mm^3. Under isoflurane anesthesia, Pt(IV)-toco/HA-toco composition (3 mg/kg on Pt(IV)-toco basis) or vehicle (1.5 MDa hyaluronan, 16.7 mg/mL) was injected intratumoral on days 14, 21, and 28 after the tumor cell injection. Tumor size was calculated using the same equation as stated in the C3H model."}, "[3]": {"test_system": "naturally occurring cancers", "test": "Open-label compassionate-care clinical trial of intralesional therapy in pet dogs", "format": "in vivo, dog", "conditions": "proposed dose level", "experimental": "An open-label, compassionate-care clinical trial was conducted in pet dogs with various types of cancer to evaluate the feasibility of intralesional delivery of Pt(IV)-toco/HA-toco composition as chemotherapy. The most common types of cancer include squamous cell carcinoma, soft tissue sarcoma, and oral melanoma. Typical exclusion criteria such as small breeds, large tumor burden, short life expectancy, metastatic disease, and certain pre-existing conditions (e.g., Cushing's disease) were not implemented in this study.\nThe reported study was conducted in 18 veterinary hospitals in the Kansas City area. Most pets received either Pt(IV)-toco/HA-toco or HylaPlat treatment at 3-week intervals for up to 10 treatments, ranging from 1 to 17.5 mg/m^2 on cisplatin basis. Clinical chemistry and hematology were obtained before and after each treatment to evaluate the tolerability of the therapy. A physical exam including measurements of tumor(s) was performed approximately every 3-weeks to monitor the response status of the subjects."}, "[4]": {"test": "Ongoing tolerability studies in rabbits", "format": "in vivo", "conditions": "proposed dose level"}, "[5]": {"conditions": "last pair of measurements vs control, 3 mg/kg intratumoral once per week for 3 weeks"}}, "note": "“Also recorded” adds a separate entry of the source."}
{"compound": "N.N.O=C([O-])C1(C(=O)[O-])CCC1.[Pt+2]", "note": "[carboplatin]", "values": [{"measurement": "safety in cats", "setting": "[1]", "result": "may be safe"}]}
{"compound": "N.N.[Cl][Pt][Cl]", "note": "[cisplatin, Cis-Dichlorodiamine platinum (II)]", "values": [{"measurement": "IC50", "setting": "[2]", "result": "3000 ± 260", "unit": "nM"}, {"measurement": "CRT translocation to the cell surface (indicator of ICD)", "setting": "calreticulin (CRT)", "result": "does not cause CRT translocation to the membrane; also recorded: does not show CRT translocation"}, {"measurement": "safety in cats", "setting": "[1]", "result": "hydrothorax, pulmonary and mediastinal edema"}]}
{"compound": "O=C1[O][Pt]2([NH][C@@H]3CCCC[C@H]3[NH]2)[O]C1=O", "note": "[oxaliplatin, Oxaliplatin]", "values": [{"measurement": "CRT translocation to the cell surface (indicator of ICD)", "setting": "calreticulin (CRT)", "result": "membrane translocation of CRT is observed; also recorded: show CRT translocation"}, {"measurement": "formation of Pt-DNA adducts relative to cisplatin", "setting": "calf thymus DNAs", "result": "approximately one tenth"}]}
{"compound": "Pt(IV)-Su-Gly-Toco [Pt(IV)-toco]", "values": [{"measurement": "tumor volume, mean±SEM, last pair of measurements", "setting": "AT84 allografts; 3 mg/kg on Pt(IV)-toco basis intratumoral, days 4, 11, 18", "result": "1024±129", "unit": "mm^3"}, {"measurement": "survival rate", "setting": "AT84 allografts; by the time all control mice have succumbed", "result": 100, "unit": "%"}, {"measurement": "tumor inhibition", "setting": "AT84 allografts; [5]", "result": 49, "unit": "%"}, {"measurement": "tumor volume, mean SEM, last pair of measurements", "setting": "MDA-1986 xenografts; 3 mg/kg on Pt(IV)-toco basis intratumoral, days 14, 21, 28", "result": "812±150", "unit": "mm^3"}, {"measurement": "tumor inhibition", "setting": "MDA-1986 xenografts; [5]", "result": 43, "unit": "%"}, {"measurement": "dose-limiting toxicities (renal dysfunction, ototoxicity, peripheral neuropathy)", "setting": "[3]", "result": "did not cause any dose-limiting toxicities"}, {"measurement": "dose-limiting toxicities (renal dysfunction, ototoxicity, peripheral neuropathy)", "setting": "[4]", "result": "did not cause any dose-limiting toxicities"}]}
